Experimental data published in ChEMBL document CHEMBL1201862, “PubChem BioAssay data set” (2004).
The source made the active and inactive calls.

Key:
[1] = Shn3 3'UTR reporter inhibitors, dose response, cell-based, Clone20 osteoblasts, firefly luciferase, cherry-picked (AID 624132); type: functional;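 note: firefly luciferase luminescence from reporter carrying the Shn3 3'UTR in osteoblasts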
[2] = control 3'UTR Renilla luciferase suppression, dose response, counter-screen for Shn3 inhibitor project, cell-based, Clone20-Shn3RL, cherry-picked (AID 624133); type: functional
[3] = HepG2 cell cytotoxicity, dose response, cytotoxicity control for Shn3 inhibitor project, CellTiter-Glo, cherry-picked (AID 624134); type: functional, cell-based
[4] = target: T1, Microphthalmia-associated transcription factor (Homo sapiens, UniProt O75030); test: TRPM1 promoter luciferase signal decrease, dose response, MITF inhibitor project, cell-based, SK-MEL-5, cherry-picked, set 3 (AID 493073); type: functional
T1 sequence (O75030 whole entry): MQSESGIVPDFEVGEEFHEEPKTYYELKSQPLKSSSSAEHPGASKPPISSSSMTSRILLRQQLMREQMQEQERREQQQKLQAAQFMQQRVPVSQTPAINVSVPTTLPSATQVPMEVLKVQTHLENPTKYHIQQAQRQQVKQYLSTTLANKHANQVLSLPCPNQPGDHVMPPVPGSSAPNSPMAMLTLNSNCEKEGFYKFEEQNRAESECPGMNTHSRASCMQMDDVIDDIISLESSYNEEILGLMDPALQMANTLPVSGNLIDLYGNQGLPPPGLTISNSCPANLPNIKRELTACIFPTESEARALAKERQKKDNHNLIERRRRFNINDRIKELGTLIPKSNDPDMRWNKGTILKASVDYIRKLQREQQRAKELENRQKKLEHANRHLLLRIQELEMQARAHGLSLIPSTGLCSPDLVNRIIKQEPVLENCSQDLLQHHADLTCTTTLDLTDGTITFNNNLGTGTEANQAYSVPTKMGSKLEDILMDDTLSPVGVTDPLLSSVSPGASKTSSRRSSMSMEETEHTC

[5] = Vero cell cytotoxicity, dose response, cytotoxicity control for Vif-APOBEC3G degradation inhibitor project, Vero cells (AID 1117358); type: functional; settings: Human immunodeficiency virus 1, Vero
A-375 = test: MITF: Counter assay: A375 proliferation Measured in Cell-Based System Using Plate Reader - 2084-03_Inhibitor_Dose_DryPowder_Activity. [Related pubchem assays (depositor defined):AID488944]; type: functional; settings: Homo sapiens
[6] = target: Sphingosine 1-phosphate receptor 2 (Homo sapiens, UniProt O95136); test: Dose Response Cell Based Assay for Agonists of the S1P2 Receptor. [Related pubchem assays: 729, 736, 843 ]; type: functional
Fibrinogen beta chain [7] = target: T2, Fibrinogen beta chain (Homo sapiens, UniProt P02675); test: Fluorescence polarization-based biochemical high throughput dose response assay to identify inhibitors that disrupt the binding of a cyclic peptide (Tn6) to the fibrin proteolytic product D-Dimer and fragment E complex [DD(E )].
[8] = target: T3, Aryl hydrocarbon receptor (Homo sapiens, UniProt P35869); test: Luminescence-based cell-based high throughput dose response assay for activators of the Aryl Hydrocarbon Receptor (AHR). [Related pubchem assays: 2796 (Primary screen (AHR activators in singlicate)), 2845 (Confirmation screen (AHR activators in triplicate)), 434939 (Counterscreen (PXR activators in triplicate)), 2804 (Summary (AHR activators))]; type: ADME
T3 sequence (P35869 whole entry): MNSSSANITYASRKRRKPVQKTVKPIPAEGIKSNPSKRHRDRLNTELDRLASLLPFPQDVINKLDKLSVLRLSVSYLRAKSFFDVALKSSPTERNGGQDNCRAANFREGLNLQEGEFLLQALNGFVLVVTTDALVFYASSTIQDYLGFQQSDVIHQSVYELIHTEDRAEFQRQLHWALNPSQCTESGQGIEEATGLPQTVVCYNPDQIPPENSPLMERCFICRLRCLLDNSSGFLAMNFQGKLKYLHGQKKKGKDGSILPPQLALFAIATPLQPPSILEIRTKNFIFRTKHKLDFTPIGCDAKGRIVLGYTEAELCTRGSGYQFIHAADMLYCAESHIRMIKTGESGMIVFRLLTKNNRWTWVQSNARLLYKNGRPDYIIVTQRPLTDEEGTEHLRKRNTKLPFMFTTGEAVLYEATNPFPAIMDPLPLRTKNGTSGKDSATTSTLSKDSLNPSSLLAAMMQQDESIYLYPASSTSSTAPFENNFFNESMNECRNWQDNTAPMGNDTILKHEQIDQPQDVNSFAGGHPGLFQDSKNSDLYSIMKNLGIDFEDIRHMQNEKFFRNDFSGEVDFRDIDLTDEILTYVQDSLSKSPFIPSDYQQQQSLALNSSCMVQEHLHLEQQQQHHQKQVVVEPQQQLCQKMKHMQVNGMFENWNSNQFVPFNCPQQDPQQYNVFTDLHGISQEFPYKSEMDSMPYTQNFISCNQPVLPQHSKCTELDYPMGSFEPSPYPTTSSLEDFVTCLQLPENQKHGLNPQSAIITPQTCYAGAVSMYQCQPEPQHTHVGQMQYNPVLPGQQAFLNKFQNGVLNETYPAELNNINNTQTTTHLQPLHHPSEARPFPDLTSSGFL

Fibrinogen beta chain [9] = target: T2, Fibrinogen beta chain; test: Fluorescence polarization-based biochemical high throughput dose response assay to identify inhibitors that disrupt the binding of a cyclic peptide (Tn7) to the fibrin proteolytic product D-Dimer and fragment E complex [DD(E )].
Transthyretin = Transthyretin (Homo sapiens, UniProt P02766); test: Luminescence-based cell-based high throughput dose response assay to identify activators of Transthyretin (TTR) transcription.; type: functional
[10] = target: Tyrosine-protein phosphatase non-receptor type 22 (Homo sapiens, UniProt Q9Y2R2); test: PTPN22 phosphatase inhibition, dose response, selectivity assay for STEP inhibitor project, biochemical (AID 624241); type: functional
[11] = target: Dual specificity protein phosphatase 3 (Homo sapiens, UniProt P51452); test: VHR phosphatase inhibition, dose response, selectivity assay for STEP inhibitor project, biochemical (AID 602374); type: functional; settings: read-out: IC50_Mean
[12] = target: T4, Tyrosine-protein phosphatase non-receptor type 5 (Homo sapiens, UniProt P54829); test: STEP phosphatase inhibitors, confirmation, biochemical, fluorescence intensity, uHTS hits (AID 602372); type: functional; settings: read-out: IC50_Mean
T4 sequence (P54829 whole entry): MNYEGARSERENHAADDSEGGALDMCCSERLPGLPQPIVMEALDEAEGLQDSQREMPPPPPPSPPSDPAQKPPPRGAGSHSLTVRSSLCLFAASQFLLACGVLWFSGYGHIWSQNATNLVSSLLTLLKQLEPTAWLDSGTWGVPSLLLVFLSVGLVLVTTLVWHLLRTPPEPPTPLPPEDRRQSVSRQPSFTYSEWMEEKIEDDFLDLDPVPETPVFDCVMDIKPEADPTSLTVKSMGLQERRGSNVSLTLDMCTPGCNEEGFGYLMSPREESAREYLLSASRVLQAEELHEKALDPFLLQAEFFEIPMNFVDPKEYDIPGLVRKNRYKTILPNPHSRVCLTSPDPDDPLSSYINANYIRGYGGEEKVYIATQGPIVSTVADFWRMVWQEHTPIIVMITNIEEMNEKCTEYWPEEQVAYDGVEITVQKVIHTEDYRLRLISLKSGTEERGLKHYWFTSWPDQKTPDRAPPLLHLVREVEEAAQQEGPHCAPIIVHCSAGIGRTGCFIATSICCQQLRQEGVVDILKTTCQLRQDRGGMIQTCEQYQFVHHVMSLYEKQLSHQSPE

Ephrin type-A receptor 4 = Ephrin type-A receptor 4 (Mus musculus, UniProt Q03137); test: inhibitors of EphA4 binding to KYL peptide, primary screen, biochemical, colorimetric, mouse EphA4 (AID 689); type: functional
[13] = target: T5, Tyrosine-protein phosphatase non-receptor type 11 (Homo sapiens, UniProt Q06124); test: SHP2 phosphatase inhibition, dose response, selectivity assay for STEP inhibitor project, biochemical (AID 602367); type: functional; settings: read-out: IC50_Mean
T5 sequence (Q06124 whole entry): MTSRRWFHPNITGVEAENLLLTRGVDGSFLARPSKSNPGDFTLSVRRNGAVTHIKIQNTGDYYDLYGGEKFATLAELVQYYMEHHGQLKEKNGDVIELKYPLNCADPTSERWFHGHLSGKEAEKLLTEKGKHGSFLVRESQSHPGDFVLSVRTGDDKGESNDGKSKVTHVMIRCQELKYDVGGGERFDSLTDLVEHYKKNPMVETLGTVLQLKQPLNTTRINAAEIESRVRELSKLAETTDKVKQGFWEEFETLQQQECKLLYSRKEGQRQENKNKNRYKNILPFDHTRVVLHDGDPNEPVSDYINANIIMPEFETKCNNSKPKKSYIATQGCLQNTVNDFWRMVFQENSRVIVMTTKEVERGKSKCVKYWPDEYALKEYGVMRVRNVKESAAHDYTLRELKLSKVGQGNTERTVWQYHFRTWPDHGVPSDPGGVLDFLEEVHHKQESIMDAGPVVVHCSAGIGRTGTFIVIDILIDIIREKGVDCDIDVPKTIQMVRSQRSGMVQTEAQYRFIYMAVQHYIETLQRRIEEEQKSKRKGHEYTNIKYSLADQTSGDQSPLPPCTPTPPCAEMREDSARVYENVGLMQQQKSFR

Phospholipase D1 = Phospholipase D1 (Homo sapiens, UniProt Q13393); test: PLD1 Cellular Concentration Response Study.; type: functional
Phospholipase D2 = Phospholipase D2 (Homo sapiens, UniProt O14939); test: PLD2 Cellular Concentration Response Study.; type: functional
[14] = THP-1 cell cytotoxicity, dose response, cytotoxicity control for Vif-APOBEC3G degradation inhibitor project, THP-1 cells (AID 1117359); type: functional; settings: Human immunodeficiency virus 1, THP-1
[15] = cytotoxicity dependent on PAX8, dose response, cell-based, plate reader, dry powder (AID 743049); type: functional
[16] = PAX5 activity inhibitors, dose response, selectivity assay for PAX8 inhibitor project, cell-based, plate reader, dry powder samples (AID 743047); type: functional;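 note: HEK293 cells carrying a Pax5 driven CD19 promoter luciferase reporter; potency of inhibitors that lower reporter luminescence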
[17] = cytotoxicity in COV362 ovarian cancer cells, dose response, cytotoxicity control for PAX8 inhibitor project, cell-based, plate reader, dry powder, SA12 (AID 743144); type: functional
[18] = NIH:OVCAR-3 ovarian cancer cell cytotoxicity, dose response, PAX8 inhibitor project, plate reader, dry powder samples (AID 743044); type: functional, cell-based
[19] = cytotoxicity in COV434 cells, dose response, cytotoxicity control for PAX8 inhibitor project, cell-based, plate reader, dry powder, SA7 (AID 743145); type: functional
[20] = cytotoxicity in OVCAR4 cells, dose response, cytotoxicity control for PAX8 inhibitor project, cell-based, plate reader, dry powder, SA11 (AID 743150); type: functional; settings: OVCAR-4
[21] = cytotoxicity in OV-90 ovarian cancer cells, dose response, PAX8 inhibitor project, cell-based, plate reader, dry powder, SA8 (AID 743149); type: functional
Paired box protein Pax-8 = Paired box protein Pax-8 (Homo sapiens, UniProt Q06710); test: inhibitors of PAX8-driven TPO luciferase reporter, dose response, RMG-I cells, cherry-pick (AID 687027); type: functional, cell-based;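 note: luciferase reporter driven by Pax8 target thyroperoxidase promoter measured by SteadyGlo luminescence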
[22] = PAX2 cell-based inhibition, dose response, selectivity assay for PAX8 inhibitor project, plate reader, dry powder samples (AID 743048); type: functional;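 note: HEK293 cells carrying a WT1 promoter luciferase reporter driven by expressed Pax2; potency is for inhibition of Pax2 driven reporter signal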
[23] = target: Ubiquitin carboxyl-terminal hydrolase BAP1 (Homo sapiens, UniProt Q92560); test: BAP1 deubiquitinase inhibitors, dose response, biochemical (AID 714); type: functional
[24] = HEp-2 cell cytotoxicity, dose response, cytotoxicity control for RSV inhibitor project, HTS (AID 2410); type: functional; settings: human respiratory syncytial virus
[25] = M. tuberculosis growth inhibition, HTS (AID 449762); type: functional
[26] = microbe, parasite or virus in culture; type: functional; settings: Mycobacterium tuberculosis
[27] = Plasmodium falciparum Dd2 Sybr green parasite growth Measured in Cell-Based and Microorganism Combination System Using Plate Reader - 2153-01_Inhibitor_Dose_DryPowder_Activity_Set3.; type: functional

T2 sequence (P02675 whole entry, the tested form may be a part): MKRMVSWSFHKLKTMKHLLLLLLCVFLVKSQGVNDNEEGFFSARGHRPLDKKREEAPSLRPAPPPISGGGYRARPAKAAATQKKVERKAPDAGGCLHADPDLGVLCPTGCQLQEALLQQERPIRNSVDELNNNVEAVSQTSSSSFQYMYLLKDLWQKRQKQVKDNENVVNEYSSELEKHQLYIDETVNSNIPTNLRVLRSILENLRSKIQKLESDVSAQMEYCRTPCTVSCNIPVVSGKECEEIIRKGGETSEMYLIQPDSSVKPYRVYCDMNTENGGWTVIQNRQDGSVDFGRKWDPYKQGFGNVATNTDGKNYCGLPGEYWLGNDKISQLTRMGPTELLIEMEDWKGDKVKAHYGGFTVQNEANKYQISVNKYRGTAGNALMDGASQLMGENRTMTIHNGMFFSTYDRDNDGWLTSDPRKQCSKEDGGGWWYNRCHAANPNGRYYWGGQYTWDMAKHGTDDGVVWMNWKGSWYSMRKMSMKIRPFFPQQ
Paired box protein Pax-8, sequence (Q06710 whole entry): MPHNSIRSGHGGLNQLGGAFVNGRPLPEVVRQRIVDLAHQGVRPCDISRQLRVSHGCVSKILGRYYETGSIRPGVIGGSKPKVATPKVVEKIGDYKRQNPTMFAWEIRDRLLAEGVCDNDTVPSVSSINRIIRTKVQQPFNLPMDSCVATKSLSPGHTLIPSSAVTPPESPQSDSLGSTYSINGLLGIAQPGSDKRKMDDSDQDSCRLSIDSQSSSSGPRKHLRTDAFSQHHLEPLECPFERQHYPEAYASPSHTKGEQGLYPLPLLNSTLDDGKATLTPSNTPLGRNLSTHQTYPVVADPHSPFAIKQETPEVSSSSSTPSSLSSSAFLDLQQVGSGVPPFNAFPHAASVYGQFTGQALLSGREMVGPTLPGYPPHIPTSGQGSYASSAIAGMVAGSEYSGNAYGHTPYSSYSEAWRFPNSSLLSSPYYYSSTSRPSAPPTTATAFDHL
Tyrosine-protein phosphatase non-receptor type 22, sequence (Q9Y2R2 whole entry): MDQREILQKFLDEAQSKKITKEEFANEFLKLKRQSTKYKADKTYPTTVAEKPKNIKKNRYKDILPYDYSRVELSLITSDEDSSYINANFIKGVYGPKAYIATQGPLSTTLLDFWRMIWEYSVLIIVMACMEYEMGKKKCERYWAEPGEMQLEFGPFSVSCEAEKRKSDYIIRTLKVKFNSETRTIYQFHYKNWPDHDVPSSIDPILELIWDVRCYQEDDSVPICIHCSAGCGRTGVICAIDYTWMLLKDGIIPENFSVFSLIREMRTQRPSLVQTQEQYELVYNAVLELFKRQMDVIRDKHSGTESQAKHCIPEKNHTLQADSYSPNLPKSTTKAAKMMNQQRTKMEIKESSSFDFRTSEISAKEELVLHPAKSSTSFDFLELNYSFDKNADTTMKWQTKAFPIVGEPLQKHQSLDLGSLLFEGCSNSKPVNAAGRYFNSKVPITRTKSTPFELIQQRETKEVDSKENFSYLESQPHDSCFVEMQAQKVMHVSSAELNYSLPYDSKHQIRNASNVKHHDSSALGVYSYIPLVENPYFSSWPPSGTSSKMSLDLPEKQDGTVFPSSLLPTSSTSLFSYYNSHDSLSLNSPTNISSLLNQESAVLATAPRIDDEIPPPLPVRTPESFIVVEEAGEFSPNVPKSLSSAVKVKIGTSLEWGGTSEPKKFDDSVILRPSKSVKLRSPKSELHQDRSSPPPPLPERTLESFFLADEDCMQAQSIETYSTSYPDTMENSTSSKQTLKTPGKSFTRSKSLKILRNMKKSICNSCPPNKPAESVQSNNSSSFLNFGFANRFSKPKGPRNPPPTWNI
Sphingosine 1-phosphate receptor 2, sequence (O95136 whole entry, the tested form may be a part): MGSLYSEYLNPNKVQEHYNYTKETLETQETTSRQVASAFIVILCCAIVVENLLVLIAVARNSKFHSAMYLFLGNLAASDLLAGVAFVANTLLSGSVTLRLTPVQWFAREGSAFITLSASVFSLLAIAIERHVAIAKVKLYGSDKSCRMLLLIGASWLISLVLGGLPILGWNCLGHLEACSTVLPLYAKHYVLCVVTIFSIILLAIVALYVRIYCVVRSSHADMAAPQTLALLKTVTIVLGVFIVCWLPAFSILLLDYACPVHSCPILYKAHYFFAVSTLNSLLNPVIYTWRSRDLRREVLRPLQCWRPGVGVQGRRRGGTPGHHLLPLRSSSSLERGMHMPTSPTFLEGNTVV
Dual specificity protein phosphatase 3, sequence (P51452 whole entry): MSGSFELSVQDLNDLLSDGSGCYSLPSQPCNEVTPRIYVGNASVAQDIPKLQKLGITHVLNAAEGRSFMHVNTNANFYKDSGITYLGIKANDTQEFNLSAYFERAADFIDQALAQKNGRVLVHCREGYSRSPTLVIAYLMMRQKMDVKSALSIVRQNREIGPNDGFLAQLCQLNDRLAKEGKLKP
Phospholipase D1, sequence (Q13393 whole entry): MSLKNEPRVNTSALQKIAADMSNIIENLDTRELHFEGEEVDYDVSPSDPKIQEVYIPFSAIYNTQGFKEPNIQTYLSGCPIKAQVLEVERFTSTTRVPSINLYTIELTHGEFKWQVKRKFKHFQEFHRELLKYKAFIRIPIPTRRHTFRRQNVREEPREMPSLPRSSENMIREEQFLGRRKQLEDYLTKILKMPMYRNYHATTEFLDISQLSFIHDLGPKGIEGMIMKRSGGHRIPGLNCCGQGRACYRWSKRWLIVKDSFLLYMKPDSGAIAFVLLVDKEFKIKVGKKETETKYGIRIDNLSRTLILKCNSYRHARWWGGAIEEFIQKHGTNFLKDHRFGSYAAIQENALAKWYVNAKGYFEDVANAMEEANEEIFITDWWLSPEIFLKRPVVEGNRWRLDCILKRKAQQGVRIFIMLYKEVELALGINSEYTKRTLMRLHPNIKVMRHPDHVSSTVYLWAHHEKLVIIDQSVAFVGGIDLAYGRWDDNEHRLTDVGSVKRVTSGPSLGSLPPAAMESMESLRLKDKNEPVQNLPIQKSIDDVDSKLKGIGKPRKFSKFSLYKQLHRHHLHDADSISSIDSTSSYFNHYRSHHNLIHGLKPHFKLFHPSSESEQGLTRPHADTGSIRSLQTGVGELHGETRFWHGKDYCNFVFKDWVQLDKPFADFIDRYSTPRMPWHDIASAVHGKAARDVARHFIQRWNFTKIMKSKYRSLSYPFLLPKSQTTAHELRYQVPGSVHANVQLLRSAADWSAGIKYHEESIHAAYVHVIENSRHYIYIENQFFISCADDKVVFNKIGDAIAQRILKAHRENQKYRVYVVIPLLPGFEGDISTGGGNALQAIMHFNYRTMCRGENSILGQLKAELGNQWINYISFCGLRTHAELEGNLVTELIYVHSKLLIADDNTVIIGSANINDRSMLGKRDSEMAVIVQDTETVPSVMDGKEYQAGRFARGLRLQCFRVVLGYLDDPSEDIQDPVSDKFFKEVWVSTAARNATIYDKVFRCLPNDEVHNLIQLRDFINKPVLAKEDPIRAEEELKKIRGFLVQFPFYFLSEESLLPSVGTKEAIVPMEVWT
Ephrin type-A receptor 4, sequence (Q03137 whole entry): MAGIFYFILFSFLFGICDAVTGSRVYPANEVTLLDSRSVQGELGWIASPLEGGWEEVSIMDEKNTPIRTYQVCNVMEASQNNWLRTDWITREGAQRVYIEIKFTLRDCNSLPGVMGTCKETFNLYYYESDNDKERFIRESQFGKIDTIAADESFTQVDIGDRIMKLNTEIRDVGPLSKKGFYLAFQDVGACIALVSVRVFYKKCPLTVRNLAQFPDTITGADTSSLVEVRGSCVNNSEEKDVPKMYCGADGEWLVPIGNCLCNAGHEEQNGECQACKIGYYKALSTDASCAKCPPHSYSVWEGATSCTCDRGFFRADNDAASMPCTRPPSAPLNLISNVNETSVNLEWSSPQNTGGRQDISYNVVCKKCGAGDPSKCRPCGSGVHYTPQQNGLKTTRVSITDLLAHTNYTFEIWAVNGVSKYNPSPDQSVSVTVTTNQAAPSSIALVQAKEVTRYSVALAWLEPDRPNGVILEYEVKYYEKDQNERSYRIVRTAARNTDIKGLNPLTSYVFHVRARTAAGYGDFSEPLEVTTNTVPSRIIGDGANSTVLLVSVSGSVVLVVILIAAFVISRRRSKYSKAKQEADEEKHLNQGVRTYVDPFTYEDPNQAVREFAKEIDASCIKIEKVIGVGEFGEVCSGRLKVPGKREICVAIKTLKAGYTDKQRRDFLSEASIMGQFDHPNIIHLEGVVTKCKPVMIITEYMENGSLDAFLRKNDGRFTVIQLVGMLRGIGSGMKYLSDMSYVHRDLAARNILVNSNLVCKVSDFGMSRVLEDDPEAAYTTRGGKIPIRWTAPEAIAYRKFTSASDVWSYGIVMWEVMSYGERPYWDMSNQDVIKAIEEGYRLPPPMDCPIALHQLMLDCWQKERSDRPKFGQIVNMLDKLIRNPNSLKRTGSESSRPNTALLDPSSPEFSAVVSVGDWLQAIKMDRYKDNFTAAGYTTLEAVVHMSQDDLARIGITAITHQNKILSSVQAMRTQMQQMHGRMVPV

## COc1cccc(CNCCc2c[nH]c3ccccc23)c1OCc1ccccc1
[1]
  AC50: 4.09 µM (active)
[2]
  AC50: 9.39 µM (active)
[3]
  AC50: 11.8 µM (active)
[4]
  AC50: 14.4 µM (active)
[5]
  CC50: > 40 µM (active)
A-375
  AC50: 36.2 µM (active)

## CC(C)CCNC(=O)c1c(N)n(Cc2ccc3c(c2)OCO3)c2nc3ccccc3nc12
[6]
  EC50: 1.69 µM (active)

## C#CCn1cc(/C=N/NC(=O)c2cc3ccccc3o2)c2ccccc21
Fibrinogen beta chain [7]
  IC50: > 83.3 µM (inactive)
[8]
  EC50: 0.544 µM (active)
Fibrinogen beta chain [9]
  IC50: > 83.3 µM (inactive)

## N=c1ccn(CC(=O)NC(N)=O)c2ccccc12
Transthyretin
  EC50: > 167 µM (inactive)

## Cc1ccc(-n2c(C)nc3oc4ccccc4c(=O)c3c2=O)cc1
[10]
  IC50: 14 µM (active)
[11]
  IC50: 0.779 µM (active)
[12]
  IC50: 14.4 µM (active)
Ephrin type-A receptor 4
  IC50: > 100 µM (not active)
[13]
  IC50: 1.13 µM (active)

## O=C(NCCN1CCC2(CC1)C(=O)NCN2C(=O)C1CCC1)c1ccc2ccccc2c1
Phospholipase D1
  IC50: 4 µM (active)
Phospholipase D2
  IC50: 0.32 µM (active)

## CCCCCC(=O)N1C[C@@H](n2cc(C3CC3)nn2)[C@H](O)C[C@@H]1c1ccc(C)cc1
[14]
  CC50: > 40 µM (active)

## CC(C)CC1NC(=S)N(Cc2ccccc2)C1=O (stereo not drawn)
[15]
  AC50: 46.8 µM (active)
[16]
  AC50: 43 µM (active)
[17]
  AC50: 33.9 µM (active)
[18]
  AC50: 94 µM (active)
[19]
  AC50: 18.8 µM (active)
[20]
  AC50: 15.9 µM (active)
[21]
  AC50: 21.4 µM (active)
Paired box protein Pax-8
  AC50: 6.46 µM (active)
[22]
  AC50: 29.2 µM (active)

## O=c1[nH]c(SCc2ccc(F)cc2)nc2c1cnn2-c1ccc(F)cc1
[23]
  IC50: > 50 µM (not active)

## COC(=O)C1=C(C)NC(=O)/C1=C\c1cc(C)n(-c2cccc(C)c2)c1C
[24]
  CC50: 16 µM (active)
[25]
  IC50: > 100 µM (active)
[26]
  CC50: > 40 µM (active)

## Cc1noc(C)c1NC(=O)Nc1ccc2c(c1)C(=O)N([C@@H](C)CN(C)C)C[C@@H](C)[C@H](CN(C)S(=O)(=O)c1ccc(F)cc1)OCCCC[C@H](C)O2
[27]
  AC50: 0.0289 µM (active)
